# Assay results reported in patent US20030153571A1 (priority 2002, published 2003).
# Tested on: CCI rats (thermal hyperalgesia)
# Test: Test C: Neuropathic pain model (Chronic Constriction Injury), thermal hyperalgesia paw-withdrawal test
# Format: in vivo, rat
# Settings: oral, three times daily for 5 days, at the MED, compared to vehicle-treated animals
# From the text: Test C: Neuropathic pain model (Chronic Constriction Injury):
# The anti-hyperalgesic properties of a compound may be tested with the Chronic Constriction Injury (“CCI”) model. The test is a model for neuropathic pain associated with nerve injuries that can arise directly from trauma and compression, or indirectly from a wide range of diseases such as infection, cancer, metabolic conditions, toxins, nutritional deficiencies, immunological dysfunction, and musculoskeletal changes. In the model a unilateral peripheral hyperalgesia is produced in rats by nerve ligation (G. J. Bennett, et al., Pain 33, 87-107 (1988)).
# Procedurally, Sprague-Dawley rats (250-350 g) are anesthetized with sodium pentobarbital and the common sciatic nerve is exposed at the level of the mid thigh by blunt dissection through the biceps femoris. […] Thermal hyperalgesia is measured using a paw-withdrawal test (K. Hargreaves, et al., Pain 32, 77-88 (1988)). […] The latencies for the withdrawal reflex in both hind paws are recorded.
# Injured paws with ligated nerves show shorter paw withdrawal latencies compared to the uninjured or sham operated paws. Responses to test compounds are evaluated at different times after oral administration to determine the onset and duration of compound effect. […] Paw withdrawal latencies are measured each day 10 min before and 2 or 3 hr. after the first daily dose. […]
row,Compound,Test C %Inh. (percent decrease in hyperalgesia at the MED) [%]
1,"(+/−)-7-Chloro-4-hydroxy-2-(4-pyridylprop-1-yl)-1,2,5,10-tetrahydropyridazino[4,5-b]quinoline-1,10-dione sodium methanesulfonate [Ex. 3]",10

# Same assay, conditions: oral, three times daily for 5 days, dose giving statistically significant decrease in hyperalgesia
row,Compound,Test C MED (minimum effective dose) [mg/kg/day]
1,"(+/−)-7-Chloro-4-hydroxy-2-(4-pyridylprop-1-yl)-1,2,5,10-tetrahydropyridazino[4,5-b]quinoline-1,10-dione sodium methanesulfonate [Ex. 3]",30

# Tested on: not given
# Test: not given
# Settings: not given
row,Compound,melting point [°C]
1,"CS(=O)(=O)O.O=c1c2ccc(Cl)cc2[nH]c2c(O)nn(CCc3ccncc3)c(=O)c12 [Ex. 2, (+/−)-7-Chloro-4-hydroxy-2-(4-pyridyleth-1-yl)-1,2,5,10-tetrahydropyridazino[4,5-b]quinoline-1,10-dione methanesulfonate]",245 to 248

# Molecular target: T1, NMDA receptor glycine site (Rattus norvegicus, UniProt P35439)
# T1 construct: to brain membranes bearing the receptor; tissue Analytical Biological Services Inc; host or cells: rat brain membranes (cerebral cortex and hippocampus, male Sprague Dawley rats)
# Test: Test A: Inhibition of binding of [3H]-MDL105,519 to brain membranes
# Settings: inhibition of [3H]MDL105,519 binding, brain membranes
# From the text: Test A: Inhibition of binding of [^3H]-MDL105,519:
# Binding of compounds to the NMDA receptor glycine site may be assessed by measuring the ability of test compounds to inhibit the binding of tritiated MDL105,519 to brain membranes bearing the receptor.
# Briefly, fresh brain tissue including cerebral cortex and hippocampus from male Sprague Dawley rats was homogenized in 0.32 M sucrose and centrifuged at low speed to separate cellular membranes from other cellular components. The membranes were then washed 3 times using deionized water, followed by treatment with 0.04% Triton X-100. Finally, membranes were washed six times in 50 mM Tris citrate buffer, pH 7.4, and frozen at −80° C. until use.
# [^3H]MDL105,519 (72 Ci/mmol) was purchased from Amersham. Cold MDL105,519 was purchased from Sigma/RBI. […] On the day of the experiment, brain membranes were thawed at room temperature and suspended in 50 mM tris acetate buffer, pH 7.4 (“TAB”). Seventy-five micro grams per milliliter protein (by using the BioRad dye) were used for competition binding. The experiments were carried out using 96-well plates. […] Non specific binding was determined by using 100 μM of unlabeled MDL105,519. […] After incubation, unbound [^3H]MDL105,519 was removed by filtration onto GF/B Unifilter plates using a Packard harvester. Filters were washed four times with ice cold TAB (total of 1.2 mL buffer). The plates were dried overnight at room temperature and bound radioactivity was measured on a Packard TopCount after the addition of 45 μL per well of the MICROSCINT O.
# Human Brain Membranes: Human brain membranes were obtained from Analytical Biological Services Inc., and assays were performed as described for rat membranes.
# Data analysis: Data was analyzed using a Microsoft Excel spreadsheet and GraphPad Prizm software and potency of compounds is expressed as the Ki (nM).
row,Compound,Ki [nM]
1,"CCCC(c1ccccn1)n1nc(O)c2[nH]c3cc(Cl)ccc3c(=O)c2c1=O (racemic) [Ex. 6, (+/−)-7-Chloro-4-hydroxy-2-(butyl-1-(2-pyridyl))-1,2,5,10-tetrahydropyridazino[4,5-b]quinoline-1,10-dione methanesulfonate]",> 10000

# Same assay, conditions: inhibition of [3H]MDL105,519 binding, brain membranes (rat and human membranes described; table does not say which)
row,Compound,Ki [nM]
1,CC(c1ccco1)n1nc(O)c2[nH]c3cc(Cl)ccc3c(=O)c2c1=O (racemic),153
2,"CCC(c1ccccn1)n1[nH]c(=O)c2nc3cc(Cl)ccc3c(O)c2c1=O (racemic) [Ex. 4, (+/−)-7-Chloro-4-hydroxy-2-(propyl-1-(2-pyridyl))-1,2,5,10-tetrahydropyridazino [4,5-b]quinoline-1,10-dione methanesulfonate]",1810
3,"CCCC(c1ccncc1)n1nc(O)c2[nH]c3cc(Cl)ccc3c(=O)c2c1=O (racemic) [Ex. 7, (+/−)-7-Chloro-4-hydroxy-2-(butyl-1-(4-pyridyl))-1,2,5,10-tetrahydropyridazino[4,5-b]quinoline-1,10-dione]",4340
4,"CC(C)C(c1ccncc1)n1nc(O)c2[nH]c3cc(Cl)ccc3c(=O)c2c1=O (racemic) [Ex. 8, (+/−)-7-Chloro-4-hydroxy-2-(propyl-(2-methyl-1-(4-pyridyl))-1,2,5,10-tetrahydropyridazino[4,5-b]quinoline-1,10-dione methanesulfonate]",5230
5,"CC(C)CC(c1ccncc1)n1[nH]c(=O)c2nc3cc(Cl)ccc3c(O)c2c1=O (racemic) [Ex. 12, (+/−)-7-Chloro-4-hydroxy-2-(3-methyl-1-(4-pyridyl)butyl)-1,2,5,10-tetrahydropyridazino[4,5-b]quinoline-1,10-dione]",5230
6,"COc1cnccc1C(C)n1nc(O)c2[nH]c3cc(Cl)ccc3c(=O)c2c1=O (racemic) [Ex. 13, (+/−)7-Chloro-4-hydroxy-2-(1-(3-methoxypyrid-4-yl))ethyl-1,2,5,10-tetrahydropyridazino[4,5-b]quinoline-1,10-dione methanesulfonate]",568
7,"COc1ccc(C(C)n2nc(O)c3[nH]c4cc(Cl)ccc4c(=O)c3c2=O)cn1 (racemic) [Ex. 14, (+/−)-7-Chloro-4-hydroxy-2-(1-(2-methoxypyrid-5-yl))ethyl-1,2,5,10-tetrahydropyridazino[4,5-b]quinoline-1,10-dione methanesulfonate]",312
8,"CC(c1ccnc(Cl)c1)n1nc(O)c2[nH]c3cc(Cl)ccc3c(=O)c2c1=O (racemic) [Ex. 16, (+/−)-7-Chloro-1-hydroxy-2-(2-chloro(4-pyridyl)ethyl)-1,2,5,10-tetrahydropyridazino[4,5-b]quinoline-1,10-dione]",51
9,"O=c1c2ccc(Cl)cc2[nH]c2c(O)nn(CCc3cccnc3Cl)c(=O)c12 [Ex. 15, (+/−)-7-Chloro-4-hydroxy-2-(2-chloro-pyrid-3-yl)ethyl-1,2,5,10-tetrahydropyridazino[4,5-b]quinoline-1,10-dione]",676
10,CC(c1cc2ccccc2s1)n1nc(O)c2[nH]c3cc(Cl)ccc3c(=O)c2c1=O (centres unmarked) [Ex. 21],177
11,"CC(c1ccc(C#N)s1)n1nc(O)c2[nH]c3cc(Cl)ccc3c(=O)c2c1=O (centres unmarked) [Ex. 22, 7-Chloro-4-hydroxy-2-(1-(5-cyanothien-2-yl)ethyl)-1,2,5,10-tetrahydropyridazino[4,5-b]quinoline-1,10-dione]",692
12,"CC(c1cnccn1)n1nc(O)c2[nH]c3cc(Cl)ccc3c(=O)c2c1=O (centres unmarked) [Ex. 23, 7-Chloro-4-hydroxy-2-(ethyl-1-(pyrazin-2-yl))-1,2,5,10-tetrahydropyridazino [4,5-b]quinoline-1,10-dione]",336
13,"(+/−)-7-Chloro-4-hydroxy-2-(4-pyridylprop-1-yl)-1,2,5,10-tetrahydropyridazino[4,5-b]quinoline-1,10-dione sodium methanesulfonate [Ex. 3]",1940
